Assay results from patent US6706663B2, “Herbicidal 3-heterocyclic substituted benzisothiazole and benzisoxazole compounds” (Wyeth, priority 2000, dated 2004).

What was measured:
[1] = tested on: CHEAL (Chenopodium album); assay: Postemergence herbicidal evaluation; type: in vivo, L.
In short: (§1)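 Seedlings grown for about two weeks were sprayed postemergence and then kept under standard greenhouse care. Injury was rated visually 4–5 weeks after treatment on a 0–9 scale against untreated controls, and ratings from repeat tests were averaged.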

[2] = tested on: AMBEL (Ambrosia artemisifolia); assay: Postemergence herbicidal evaluation; type: in vivo, L.
In short: as §1

[3] = tested on: CASOB (Cassia obtusifolia); assay: Postemergence herbicidal evaluation; type: in vivo, L.
In short: as §1

SETVI (Setaria viridis) [4] = assay: Postemergence herbicidal evaluation; type: in vivo, (L.) Beau
In short: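 Visual injury score (0-9: stand, vigor, malformation, size, chlorosis, overall appearance vs untreated control) taken four to five weeks post-spray. Two-week-old seedlings received about 0.0040 to 1.000 kg/ha active compound in acetone/water with 0.5% TWEEN 20.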

[5] = tested on: IPOHE (Ipomoea hederacea); assay: Postemergence herbicidal evaluation; type: in vivo, (L.) Jacq.
In short: as §1

ORYSAT (Rice, Tebonnet) [6] = assay: Preemergence herbicidal evaluation; type: in vivo, Oryza sativa, (L.) Tebonnet; conditions: preemergence, rated 4-5 weeks after treatment
[7] = tested on: SAGPY (Sagittaria pygmaea); assay: Flooded paddy, preemergence weed control; type: in vivo, L.; conditions: rated 3-4 weeks after treatment, 0-9 rating scale
In short: (§2)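 Flooded silt loam pots, seeds in upper 0.5 cm, water held 1.5–3 cm deep; greenhouse; visual 0-9 score vs control.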

[8] = tested on: CYPSE (Cyperus serotinus); assay: Flooded paddy, preemergence weed control; type: in vivo, Rottb.; conditions: rated 3-4 weeks after treatment, 0-9 rating scale
In short: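 Seeds or propagules were planted 0.5 cm deep in silt loam and flooded to 1.5–3 cm. Compounds in 50/50 v/v aqueous/acetone were pipetted into the flood water at about 0.0080 to 0.1250 kg/ha. After 3–4 weeks in the greenhouse, effect was rated visually on a 0–9 scale versus untreated control.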

CYPIR (Cyperus iria) = assay: Flooded paddy, preemergence weed control; type: in vivo; conditions: rated 3-4 weeks after treatment, 0-9 rating scale
In short: as §2

[9] = tested on: ABUTH (Abutilon theophrasti); assay: Postemergence herbicidal evaluation; type: in vivo, Medic.
In short: as §1

ORYSAT (Rice, Tebonnet) [10] = assay: Postemergence herbicidal evaluation; type: in vivo, Oryza sativa, (L.) Tebonnet
In short: as §1

[11] = tested on: ECHCG (Echinochloa crus-galli); assay: Preemergence herbicidal evaluation; type: in vivo, (L.) Beau; conditions: preemergence, rated 4-5 weeks after treatment
In short: (§3)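 Greenhouse preemergence test: freshly planted cups were sprayed once with an aqueous acetone solution of compound. Injury was judged visually on a 0–9 scale relative to a control, four to five weeks later.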

SETVI (Setaria viridis) [12] = assay: Preemergence herbicidal evaluation; type: in vivo, (L.) Beau; conditions: preemergence, rated 4-5 weeks after treatment
In short: as §3

[13] = tested on: CHEAL (Chenopodium album); assay: Preemergence herbicidal evaluation; type: in vivo, L.; conditions: preemergence, rated 4-5 weeks after treatment
In short: as §3

[14] = tested on: AMBEL (Ambrosia artemisifolia); assay: Preemergence herbicidal evaluation; type: in vivo, L.; conditions: preemergence, rated 4-5 weeks after treatment
In short: as §3

[15] = tested on: CASOB (Cassia obtusifolia); assay: Preemergence herbicidal evaluation; type: in vivo, L.; conditions: preemergence, rated 4-5 weeks after treatment
In short: as §3

[16] = tested on: MOOVA (Monochoria vaginalis); assay: Flooded paddy, preemergence weed control; type: in vivo, Presl.; conditions: rated 3-4 weeks after treatment, 0-9 rating scale
In short: as §2

[17] = tested on: TRZAWR (Wheat, Winter, cv Riband); assay: Postemergence herbicidal evaluation; type: in vivo, Triticum aestivum
In short: as §1

GALAP (Galium aparine) = assay: Postemergence herbicidal evaluation; type: in vivo
In short: as §1

In the case of Cc1csc(-c2nsc3ccc(-n4c(=O)cc(C(F)(F)F)n(C)c4=O)cc23)n1 [Compound 7, 1-methyl-3-[3-(4-methyl-2-thiazolyl)-1,2-benzisothiazol-5-yl]-6-(trifluoromethyl)uracil], the “Postemergence herbicidal rating, CHEAL” value ([1]; rate 0.0320 kg/ha) is reported as 4.0, the “Postemergence herbicidal rating, CHEAL” value ([1]; rate 0.0620 kg/ha) is reported as 4.0 and the “Postemergence herbicidal rating, CHEAL” value ([1]; rate 0.1250 kg/ha) is reported as 9.0. The “Postemergence herbicidal rating, AMBEL” value ([2]; rate 0.0320 kg/ha) was 2.0, the “Postemergence herbicidal rating, AMBEL” value ([2]; rate 0.0620 kg/ha) was 4.0 and the “Postemergence herbicidal rating, AMBEL” value ([2]; rate 0.1250 kg/ha) was 9.0. The “Postemergence herbicidal rating, CASOB” value ([3]; rate 0.0320 kg/ha) was 0.0, the “Postemergence herbicidal rating, CASOB” value ([3]; rate 0.0620 kg/ha) was 0.0 and the “Postemergence herbicidal rating, CASOB” value ([3]; rate 0.1250 kg/ha) was 3.0. The “Postemergence herbicidal rating, SETVI” value (SETVI (Setaria viridis) [4]; rate 0.0320 kg/ha) was 0.0, the “Postemergence herbicidal rating, SETVI” value (SETVI (Setaria viridis) [4]; rate 0.0620 kg/ha) was 0.0 and the “Postemergence herbicidal rating, SETVI” value (SETVI (Setaria viridis) [4]; rate 0.1250 kg/ha) was 2.0. For the same compound, the “Postemergence herbicidal rating, IPOHE” value ([5]; rate 0.0320 kg/ha) was 2.0, the “Postemergence herbicidal rating, IPOHE” value ([5]; rate 0.0620 kg/ha) was 9.0 and the “Postemergence herbicidal rating, IPOHE” value ([5]; rate 0.1250 kg/ha) was 9.0. For the same compound, the “ORYSAT preemergence herbicidal rating” value (ORYSAT (Rice, Tebonnet) [6]; Rate 0.0620 kg/ha) was 0.0, the “ORYSAT preemergence herbicidal rating” value (ORYSAT (Rice, Tebonnet) [6]; Rate 0.1250 kg/ha) was 0.0 and the “ORYSAT preemergence herbicidal rating” value (ORYSAT (Rice, Tebonnet) [6]; Rate 0.2500 kg/ha) was 0.0. For the same compound, the “herbicidal rating, SAGPY” value ([7]; rate 0.0080 kg/ha) was 0.0, the “herbicidal rating, SAGPY” value ([7]; rate 0.0320 kg/ha) was 0.0 and the “herbicidal rating, SAGPY” value ([7]; rate 0.1250 kg/ha) was 1.0. For the same compound, the “herbicidal rating, CYPSE” value ([8]; rate 0.0080 kg/ha) was 0.0, the “herbicidal rating, CYPSE” value ([8]; rate 0.0320 kg/ha) was 0.0 and the “herbicidal rating, CYPSE” value ([8]; rate 0.1250 kg/ha) was 0.0. The “herbicidal rating, CYPIR” value (CYPIR (Cyperus iria); rate 0.0080 kg/ha) was 7.0, the “herbicidal rating, CYPIR” value (CYPIR (Cyperus iria); rate 0.0320 kg/ha) was 8.5 and the “herbicidal rating, CYPIR” value (CYPIR (Cyperus iria); rate 0.1250 kg/ha) was 9.0. For the same compound, the “Postemergence herbicidal rating, ABUTH” value ([9]; rate 0.0320 kg/ha) was 9.0, the “Postemergence herbicidal rating, ABUTH” value ([9]; rate 0.0620 kg/ha) was 9.0 and the “Postemergence herbicidal rating, ABUTH” value ([9]; rate 0.1250 kg/ha) was 9.0. For the same compound, the “Postemergence herbicidal rating, ORYSAT” value (ORYSAT (Rice, Tebonnet) [10]; rate 0.0320 kg/ha) was 4.5, the “Postemergence herbicidal rating, ORYSAT” value (ORYSAT (Rice, Tebonnet) [10]; rate 0.0620 kg/ha) was 5.0 and the “Postemergence herbicidal rating, ORYSAT” value (ORYSAT (Rice, Tebonnet) [10]; rate 0.1250 kg/ha) was 7.0. For the same compound, the “ECHCG preemergence herbicidal rating” value ([11]; Rate 0.0620 kg/ha) was 0.0, the “ECHCG preemergence herbicidal rating” value ([11]; Rate 0.1250 kg/ha) was 3.0 and the “ECHCG preemergence herbicidal rating” value ([11]; Rate 0.2500 kg/ha) was 3.0. For the same compound, the “SETVI preemergence herbicidal rating” value (SETVI (Setaria viridis) [12]; Rate 0.0620 kg/ha) was 9.0, the “SETVI preemergence herbicidal rating” value (SETVI (Setaria viridis) [12]; Rate 0.1250 kg/ha) was 9.0 and the “SETVI preemergence herbicidal rating” value (SETVI (Setaria viridis) [12]; Rate 0.2500 kg/ha) was 9.0. The “CHEAL preemergence herbicidal rating” value ([13]; Rate 0.0620 kg/ha) was 9.0, the “CHEAL preemergence herbicidal rating” value ([13]; Rate 0.1250 kg/ha) was 9.0 and the “CHEAL preemergence herbicidal rating” value ([13]; Rate 0.2500 kg/ha) was 9.0. For the same compound, the “AMBEL preemergence herbicidal rating” value ([14]; Rate 0.0620 kg/ha) was 0.0, the “AMBEL preemergence herbicidal rating” value ([14]; Rate 0.1250 kg/ha) was 0.0 and the “AMBEL preemergence herbicidal rating” value ([14]; Rate 0.2500 kg/ha) was 0.0. The “CASOB preemergence herbicidal rating” value ([15]; Rate 0.0620 kg/ha) was 0.0, the “CASOB preemergence herbicidal rating” value ([15]; Rate 0.1250 kg/ha) was 3.0 and the “CASOB preemergence herbicidal rating” value ([15]; Rate 0.2500 kg/ha) was 9.0. The “herbicidal rating, MOOVA” value ([16]; rate 0.0080 kg/ha) was 9.0, the “herbicidal rating, MOOVA” value ([16]; rate 0.0320 kg/ha) was 9.0 and the “herbicidal rating, MOOVA” value ([16]; rate 0.1250 kg/ha) was 9.0. For the same compound, the “Postemergence herbicidal rating, TRZAWR” value ([17]; rate 0.0320 kg/ha) was 4.5, the “Postemergence herbicidal rating, TRZAWR” value ([17]; rate 0.0620 kg/ha) was 5.5 and the “Postemergence herbicidal rating, TRZAWR” value ([17]; rate 0.1250 kg/ha) was 6.0. For the same compound, the “Postemergence herbicidal rating, GALAP” value (GALAP (Galium aparine); rate 0.0320 kg/ha) was 2.0, the “Postemergence herbicidal rating, GALAP” value (GALAP (Galium aparine); rate 0.0620 kg/ha) was 9.0 and the “Postemergence herbicidal rating, GALAP” value (GALAP (Galium aparine); rate 0.1250 kg/ha) was 7.0.
